Results reported in the NIST ThermoML archive (doi:10.1016/j.jct.2018.06.026).
Numbers after ± are expanded uncertainties.

Columns and labels:
[1] = wn = mass fraction of the nth substance listed; settings: 100 kPa, Liquid, Vibrating tube method
[2] = refractive index (Na D-line) (dimensionless); wn = mass fraction of the nth substance listed; settings: 100 kPa, Liquid, Standard Abbe refractometry

mass density ([1]; 293.15 K, w1 = 0.265): 1200.01 ± 10 kg/m3 | mass density ([1]; 313.15 K, w1 = 0.2717): 1181.06 ± 10 kg/m3 | refractive index ([2]; 293.15 K, w1 = 0.265): 1.38027 ± 0.002 | refractive index ([2]; 313.15 K, w1 = 0.2717): 1.37386 ± 0.002
SMILES: [Cl-].[Na+] [sodium chloride] + O
